From US10118947B2, “Modulation of structured polypeptide specificity” (BICYCLE THERAPEUTICS LIMITED, priority 2013, dated 2018)
pKd, pKi: −log10 of the molar value. Read-outs that look alike come from different tables or passages of the source. Numbered stars: 1 amine (or outer) side, 2 acyl side, 3 side chain; on linkers, the order of the positions; unused ones are H or OH. Bridge positions count the residues as written; N and C are the ends. Square brackets hold non-standard residues; d marks the D form. Peptide text beside a SMILES is read from it. TBMB = c1c(C[*:1])cc(C[*:3])cc1C[*:2]; Chg = N[C@H](C(=O)O)C1CCCCC1

Key:
[1] = Quantitative plasma stability Method #3 (LC-MS, 95% plasma), rat plasma; format: in vitro ADME; conditions: method #3; for half-life at 5 uM: rat, plasma
Procedure: To obtain plasma stability quantitatively, peptide stock solutions (1 mM in DMSO) were shipped to Biofocus, UK, who performed the analysis. Peptides were diluted to 100 uM with water, and diluted 1:20 in plasma (5 uM final concentration, with the plasma at 95%), sampled as appropriate, precipitated as above, and quantified using a Waters Xevo TQ-MS.

rat plasma Kallikrein [2] = target: T1, rat plasma Kallikrein (Rattus norvegicus, UniProt P14272); conditions: Table 1; read-out: Ki (nM) (rat kallikrein); cited from earlier work
T1 construct: polyhistidine tag (N, cleaved yes); proTEV cleavage site (pro-peptide linker) (N, cleaved yes); made in house; host or cells: HEK-293 (suspension-adapted)

[3] = Table 1; Method #3; cited from earlier work
human plasma Kallikrein = target: T2, human plasma Kallikrein (Homo sapiens, UniProt P03952); assay: Functional enzyme inhibition assay with fluorogenic substrate Z-PheArg-AMC, human plasma Kallikrein; format: biochemical
T2 construct: purchased Stratech, UK
Outline: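 Human plasma kallikrein at 26.5 pM was preincubated 15 minutes with test peptide in Tris/NaCl/MgCl2/CaCl2/BSA buffer pH7.4 at 25° C, then Z-PheArg-AMC added to 100 μM final in 4% DMSO.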

[4] = Plasma stability profiling Method #1 (MALDI-TOF, 35% plasma), rat plasma; format: in vitro ADME; conditions: method #1
Outline: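 Qualitative test: 200 µM peptide incubated at 37 °C in 35% rat or human citrated plasma supplemented with PBS, sampled at 0, 3, 24 h then daily up to 10 days. Parent mass tracked by MALDI-TOF; value is time until parent peptide no longer detectable.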

rat plasma Kallikrein [5] = target: T1, rat plasma Kallikrein; assay: Functional enzyme inhibition assay with fluorogenic substrate Z-PheArg-AMC, rat plasma Kallikrein; format: biochemical; conditions: Table 26a, loop2 stability enhanced candidates
Procedure: Functional enzyme assays were conducted in 10 mM Tris HCl, 150 mM NaCl, 10 mM MgCl2, 1 mM CaCl2) and 1 mg/mL BSA (all Sigma UK) pH7.4 at 25° C. in solid black 96 well plates. Briefly 26.5 pM human plasma Kallikrein (purchased from Stratech, UK) or 500 pM rat plasma Kallikrein (expressed and purified in house) were incubated in the absence or presence of increasing concentrations of test peptide for 15 minutes before addition of the fluorogenic substrate Z-PheArg-AMC (Enzo Lifesciences UK) to a final assay concentration of 100 μM in 4% DMSO. Release of AMC was measured using a Pherastar FS (BMG Labtech), excitation 360 nm, emission 460 nm. The rate of the linear phase of the reaction, typically 5 to 45 minutes, was calculated in MARS data analysis software (BMG labtech). The rate was then used to calculate the IC50 and Ki in Prism (GraphPad). A four parameter inhibition non-linear regression equation was used to calculate the IC50.
Peptides were dissolved as the TFA-salts in their powder form, and stock solutions were usually prepared in water. All solutions were centrifuged and filtered ([…] syringe filters) prior absorption measurement at 280 nm. Extinction coefficients were calculated based on the Trp/Tyr content of the peptide, and that of TMB (the TMB core, when contained in a peptide, has an ε of ˜300 M^−1cm^−1). For peptides containing non-natural amino acids with suspected chromophoric properties (i.e. NorHar, 4PhenylPro, 3Pal, 4Pal, Tic, 4GuanPhe, 4,4-BPAI, 3,3-DPA, 1NAI, 2NAI, 4BenzylPro, Ind) concentrations were determined by weighing the powder and dissolving the peptide in a defined quantity of water.

[6] = Plasma stability / fragment profiling Method #2 (MALDI-TOF, 95% plasma), human plasma; format: in vitro ADME; conditions: running text and figure legends
Procedure: To obtain stability data more rapidly, peptides were also assessed in 95% plasma. Here, PBS was omitted, and a 1 mM peptide stock (in DMSO) was directly diluted into plasma (i.e. 2.5 uL stock into 47.5 uL plasma), giving a final concentration of 50 uM. 5 uL samples were taken at appropriate time points and frozen at −80 deg C. For analysis, the samples were defrosted, mixed with 15 uL of 1:1 acetonitrile:methanol, and centrifuged at 13 k for 5 min. 5 uL of the peptide-containing supernatant was aspirated and mixed with 30 mM ammonium bicarbonate in a 1:1 mixture of acetonitrile:H2O. 1 uL of this was then spotted on the MALDI plate and analysed as described above. As above, it should be noted that this is a qualitative assay serves to detect relative changes in plasma stability.
Ac-06-34-18(TMB)-NH2 Phe2 Tyr4 (referred to as wild type peptide) was subsequently subjected to human plasma, and analysed for fragments to appear over time. This was compared to the degradation profile observed in human plasma using the NMe-Arg5 derivative of 06-34-18 (FIGS. 18a and 18b). Fragmentation was determined according to Method #2.

T2 sequence (P03952 20-638): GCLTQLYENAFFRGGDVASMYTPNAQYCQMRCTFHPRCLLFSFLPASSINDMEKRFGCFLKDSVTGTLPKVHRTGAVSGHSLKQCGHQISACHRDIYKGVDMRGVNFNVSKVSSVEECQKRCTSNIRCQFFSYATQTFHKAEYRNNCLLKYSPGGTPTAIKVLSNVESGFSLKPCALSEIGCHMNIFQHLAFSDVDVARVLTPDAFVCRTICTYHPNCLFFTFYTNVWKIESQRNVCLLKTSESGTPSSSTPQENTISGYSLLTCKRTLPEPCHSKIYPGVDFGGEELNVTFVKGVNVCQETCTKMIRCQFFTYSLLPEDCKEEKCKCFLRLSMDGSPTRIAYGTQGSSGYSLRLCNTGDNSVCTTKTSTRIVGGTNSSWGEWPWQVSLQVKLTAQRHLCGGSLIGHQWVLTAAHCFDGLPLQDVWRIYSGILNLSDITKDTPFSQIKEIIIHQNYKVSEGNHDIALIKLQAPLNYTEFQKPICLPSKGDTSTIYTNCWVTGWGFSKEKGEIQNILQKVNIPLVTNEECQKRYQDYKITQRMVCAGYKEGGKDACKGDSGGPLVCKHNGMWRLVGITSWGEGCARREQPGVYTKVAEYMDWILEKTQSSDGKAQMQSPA
T1 sequence (P14272 391-638 limits assumed): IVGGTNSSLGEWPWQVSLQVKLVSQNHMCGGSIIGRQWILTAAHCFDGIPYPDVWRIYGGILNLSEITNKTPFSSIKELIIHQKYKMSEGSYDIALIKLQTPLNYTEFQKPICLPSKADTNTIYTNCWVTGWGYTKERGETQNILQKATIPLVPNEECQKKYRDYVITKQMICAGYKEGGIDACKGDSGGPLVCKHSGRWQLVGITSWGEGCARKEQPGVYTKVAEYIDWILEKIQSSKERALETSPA

In the case of `CC(=O)N[C@H]1CSCc2cc3cc(c2)CSC[C@H](NC(=O)[C@H](CCCCNC(=N)N)NC(=O)[C@H](C)NC(=O)[C@@H]2CCCN2C(=O)[C@H](Cc2c[nH]c4ccccc24)NC(=O)[C@H](CO)NC1=O)C(=O)N[C@@H](CC(C)C)C(=O)N[C@@H](Cc1c[nH]cn1)C(=O)N[C@@H](CCC(N)=O)C(=O)N[C@@H](CC(=O)O)C(=O)N[C@@H](CC(C)C)C(=O)N[C@H](C(N)=O)CSC3` [Ac-(06-34-18) HomoArg5], the half-life at 5 uM ([1]; Table 15, read-out: t1/2 (hrs) in rat plasma (converted)) is given as 10.7 h, the Ki (rat plasma Kallikrein [2]) is given as 101 nM and the “t1/2 (hrs) in rat plasma” value [3] is given as 10.7 h.
For `CC(=O)N[C@H]1CSCc2cc3cc(c2)CSC[C@H](NC(=O)[C@H](CCCNC(=N)N)N(C)C(=O)[C@H](C)NC(=O)[C@@H]2CCCN2C(=O)[C@H](Cc2c[nH]c4ccccc24)NC(=O)[C@H](CO)NC1=O)C(=O)N[C@@H](CC(C)C)C(=O)N[C@@H](Cc1c[nH]cn1)C(=O)N[C@@H](CCC(N)=O)C(=O)N[C@@H](CC(=O)O)C(=O)N[C@@H](CC(C)C)C(=O)N[C@H](C(N)=O)CSC3` [Ac-(06-34-18) NMeArg5], the “reduction in potency/affinity compared to wildtype” value (human plasma Kallikrein) was 20 fold, the “observability window / rat plasma stability profile” value [4] was “exceeds the assay time” and the “t1/2 (hrs) in rat plasma” value ([1]; Table 15) was greater than 20 h. The half-life at 5 uM ([1]; read-out: half-life in rat plasma (t1/2) (converted)) was greater than 20 h, the Ki (rat plasma Kallikrein [2]) was 120 nM and the “t1/2 (hrs) in rat plasma” value [3] was greater than 20 h.
In the case of `CC(=O)N[C@H]1CSCc2cc3cc(c2)CSC[C@H](NC(=O)[C@H](CCCNC(=N)N)NC(=O)[C@H](Cc2ccc(O)cc2)NC(=O)[C@@H]2CCCN2C(=O)[C@H](Cc2ccccc2)NC(=O)[C@H](CO)NC1=O)C(=O)N[C@@H](C)CN[C@@H](Cc1c[nH]cn1)C(=O)N[C@@H](CCC(N)=O)C(=O)N[C@@H](CC(=O)O)C(=O)N[C@@H](CC(C)C)C(=O)N[C@H](C(N)=O)CSC3` [Ac-(06-34-18) Phe2 Tyr4 Ala(ψCH2NH)6], the pKd (human plasma Kallikrein) was 8.82, the “F (Kivar/KiWT)” value (human plasma Kallikrein; Table 25b, fold change of Ki of variant compared to WT) was 4 and the pKi (human plasma Kallikrein; Table 25b, peptide backbone modifications in Loop2, human plasma kallikrein, read-out: Ki) was 8.83. The Ki (rat plasma Kallikrein [5]) was 43.6 nM and the “degradation / fragments in human plasma (in words)” value [6] was “significantly enhanced stability in loop2”.
`CC(=O)N[C@H]1CSCc2cc3cc(c2)CSC[C@H](NC(=O)[C@H](CCCNC(=N)N)NC(=O)[C@H](Cc2ccc(O)cc2)NC(=O)[C@@H]2CCCN2C(=O)[C@H](Cc2ccccc2)NC(=O)[C@H](CO)NC1=O)C(=O)N[C@@H](C1CCCCC1)C(=O)N[C@@H](Cc1c[nH]cn1)C(=O)N[C@@H](CCC(N)=O)C(=O)N[C@@H](CC(=O)O)C(=O)N[C@@H](CC(C)C)C(=O)N[C@H](C(N)=O)CSC3` [Ac-(06-34-18) Phe2 Tyr4 Chg6] (Ac-CSFPYRC[Chg]HQDLC-NH2; linker 1-7-13 via TBMB) gave a Ki (human plasma Kallikrein; Table 24a, residue 6 modification in the context of Ac-(06-34-18) Phe2 Tyr4, read-out: Ki (nM) Ac-(06-34-18) Phe2 Tyr4) of 0.5 nM and a Ki (rat plasma Kallikrein [5]) of 9.09 nM.
